Test results as given in US11634450B2, “DOT1L degraders and uses thereof” (DANA-FARBER CANCER INSTITUTE, INC., priority 2018, dated 2023).
One block for each compound: values may come before it.

Columns and labels:
DOT1L [1] = target: T1, DOT1L (Mus musculus, UniProt Q6XZL8); test: Degradation in mouse MLL-AF9 PA cell line by immunoblot; type: cell-based; conditions: FIGS. 10A-10B, mouse MLL-AF9 PA cells, up to 10 μM, 24, 48 and 72 hours
T1 construct: endogenous in cells; host or cells: mouse MLL-AF9 PA leukemia cells
Description: FIGS. 10A-10B show mouse MLL-AF9 PA (Mixed-lineage leukemia (MLL)-AF9 leukemia) cells treated with DOT1L-1 at the indicated concentrations for the indicated amount of time. The cells were immunoblotted with DOT1L (D402T), actin, and H3K79me2.
Mouse MLL-AF9 PA (Mixed-lineage leukemia (MLL)-AF9 leukemia) cells were treated with DOT1L-1 at 0 μM, 0.3 μM, 1 μM, 3.3 μM, and 10 μM for 24 hours, 48 hours, and 72 hours. Cell lysates were loaded on SDS-PAGE, then immunoblotted with DOT1L (D402T), actin, H3K79me2, and total H3. A second treatment was performed with DOT1L-1 concentrations of 0 μM, 0.01 μM, 0.1 μM, 0.3 μM, 1 μM, 3.3 μM, and 10 μM, at 24 hours and 48 hours.

DOT1L [2] = target: T2, DOT1L (Homo sapiens, UniProt Q8TEK3); test: Degradation in Molm13 PA cell line by immunoblot; type: cell-based; parameters: endogenous in cells; conditions: FIGS. 9A-9B, 0.3 μM to 10 μM, 24, 48 and 72 hours
Description: FIGS. 9A-9B show acute myeloid leukemia cells (Molm13 PA) treated with DOT1L-1 at the indicated concentrations for the indicated amount of time. The cells were immunoblotted with DOT1L (D402T), actin, and H3K79me2.
The cells were immunoblotted with DOT1L (D402T), actin, and H3K79me2.
Molm13PA (acute myeloid leukemia) cells were treated with dDOT1L-1 at 0 μM, 0.3 μM, 1 μM, 3.3 μM, and 10 μM for 24 hours and 48 hours. Cell lysates were loaded on SDS-PAGE, then immunoblotted with DOT1L (D402T), actin, H3K79me2, total H3. Repeat treatment was performed at 24 hours, 48 hours and 72 hours at the same concentrations of dDOT1L-1. […] (see FIGS. 9A-9B).
Molm13PA (acute myeloid leukemia) cells were treated with DOT1L-4 at 0 μM, 0.3 μM, 1 μM, 3.3 μM, and 10 μM for 24 hours, 48 hours, and 72 hours. Cell lysates were loaded on SDS-PAGE, then immunoblotted with DOT1L (D402T), actin, H3K79me2, total H3.

[3] = target: T3, DOT1L tagged GFP and mcherry (Homo sapiens, UniProt Q8TEK3+Q96SW2); test: DOT1L degradation eGFP-mCherry reporting cell line assay; type: cell-based; conditions: FIG. 26, eGFP-mCherry reporting cell line, 24 hour treatment
T3 construct: eGFP; mCherry; expressed in transfected cells
Description: This can directly report the targeted protein degradation. (See Sievers et al., Science, 2018).
The tested compounds include exemplary DOT1L degrader compounds JQ-DD2, JQ-DD3, JQ-DD4, JQ-DD5, JQ-DD6, JQ-DD7, JQ-DD8, negative control EPZ5676, and positive controls thalidomide and lenalidomide. The eGFP-mCherry reporting cell line can report the degradation well in 24 hours.
A new DOT1L degradation reporting cell line was developed with DOT1L tagged GFP and mcherry. This reporting cell line can directly report the targeted protein degradation. (See Sievers et al., Science, 2018). DOT1L degradation using eGFP-mCherry reporting cell line assays were conducted for exemplary DOT1L degrader compounds, and control compounds at different concentrations [M], measured in [M] per mP. The tested compounds include exemplary DOT1L degrader compounds JQ-DD2, JQ-DD3, JQ-DD4, JQ-DD5, JQ-DD6, JQ-DD7, JQ-DD8, and controls EPZ5676, Thalidomide, and Lenalidomide.

DOT1L [4] = target: T2, DOT1L; test: DOT1L degradation in EOL1 cells by immunoblot; type: cell-based; parameters: endogenous in cells; host or cells: EOL1; conditions: for DOT1L degradation: immunoblot
Description: With JQ-DD6, the degradation happened at 16 hours and maximum degradation occurs at 24 hours.
(§1) EOL1 (acute myeloid (eosinophilic) leukemia cell line) cells were treated with exemplary DOT1L degrader compounds JQ-DD6, JQ-DD7, and JQ-DD8 at 0.5 μM, 1 μM, 3 μM, 5 μM, and 10 μM for 24 hours. Cell lysates were loaded on SDS-PAGE, then immunoblotted with DOT1L, Myc, H3K79me2, and actin. (see FIG. 21).
EOL1 cells were treated with exemplary DOT1L degrader compounds JQ-DD2, JQ-DD4, and JQ-DD6, JQ-DD7, and JQ-DD8 at 1 μM and […] for 2, 4, 8, 16, and 24 hours. Cell lysates were immunoblotted with DOT1L, Myc, H3K79me2, and actin at the indicated concentrations for the indicated times. (see FIG. 23).
(§2) EOL1 cells were treated with exemplary DOT1L degrader compounds JQ-DD6, JQ-DD7, and JQ-DD8 at 1 μM and […] for 24 and 48 hours. Cell lysates were immunoblotted with DOT1L, Myc, H3K79me2, and actin at the indicated concentrations for the indicated times. (see FIG. 24).

CRBN with DOT1L = CRBN with DOT1L (Homo sapiens, UniProt Q8TEK3+Q96SW2); test: Biochemical dimerization assay of CRBN with DOT1L induced by the degraders; conditions: FIG. 20, biochemical assay setting
Description: This new assay checks if the exemplary compounds can dimerize CRBN and DOT1L in a biochemical assay setting.
A biochemical assay was completed to determine the dimerization of CRBN with DOT1L induced by the degraders. This assay checks if the exemplary compounds can dimerize CRBN and DOT1L in a biochemical assay setting.

EOL1 cells = test: Toxicity seen in EOL1 cells treated for immunoblot; type: cell-based; conditions: at 24 hours
Description: as §1, §2

[5] = FIG. 21, EOL1 cells, 0.5 μM, 1 μM, 3 μM, 5 μM, and 10 μM for 24 hours
[6] = FIG. 23, EOL1 cells, time course 2, 4, 8, 16, and 24 hours, 1 μM and 10M
[7] = FIG. 24, EOL1 cells, 1 μM and 10M for 24 and 48 hours

T2 sequence (Q8TEK3 whole entry): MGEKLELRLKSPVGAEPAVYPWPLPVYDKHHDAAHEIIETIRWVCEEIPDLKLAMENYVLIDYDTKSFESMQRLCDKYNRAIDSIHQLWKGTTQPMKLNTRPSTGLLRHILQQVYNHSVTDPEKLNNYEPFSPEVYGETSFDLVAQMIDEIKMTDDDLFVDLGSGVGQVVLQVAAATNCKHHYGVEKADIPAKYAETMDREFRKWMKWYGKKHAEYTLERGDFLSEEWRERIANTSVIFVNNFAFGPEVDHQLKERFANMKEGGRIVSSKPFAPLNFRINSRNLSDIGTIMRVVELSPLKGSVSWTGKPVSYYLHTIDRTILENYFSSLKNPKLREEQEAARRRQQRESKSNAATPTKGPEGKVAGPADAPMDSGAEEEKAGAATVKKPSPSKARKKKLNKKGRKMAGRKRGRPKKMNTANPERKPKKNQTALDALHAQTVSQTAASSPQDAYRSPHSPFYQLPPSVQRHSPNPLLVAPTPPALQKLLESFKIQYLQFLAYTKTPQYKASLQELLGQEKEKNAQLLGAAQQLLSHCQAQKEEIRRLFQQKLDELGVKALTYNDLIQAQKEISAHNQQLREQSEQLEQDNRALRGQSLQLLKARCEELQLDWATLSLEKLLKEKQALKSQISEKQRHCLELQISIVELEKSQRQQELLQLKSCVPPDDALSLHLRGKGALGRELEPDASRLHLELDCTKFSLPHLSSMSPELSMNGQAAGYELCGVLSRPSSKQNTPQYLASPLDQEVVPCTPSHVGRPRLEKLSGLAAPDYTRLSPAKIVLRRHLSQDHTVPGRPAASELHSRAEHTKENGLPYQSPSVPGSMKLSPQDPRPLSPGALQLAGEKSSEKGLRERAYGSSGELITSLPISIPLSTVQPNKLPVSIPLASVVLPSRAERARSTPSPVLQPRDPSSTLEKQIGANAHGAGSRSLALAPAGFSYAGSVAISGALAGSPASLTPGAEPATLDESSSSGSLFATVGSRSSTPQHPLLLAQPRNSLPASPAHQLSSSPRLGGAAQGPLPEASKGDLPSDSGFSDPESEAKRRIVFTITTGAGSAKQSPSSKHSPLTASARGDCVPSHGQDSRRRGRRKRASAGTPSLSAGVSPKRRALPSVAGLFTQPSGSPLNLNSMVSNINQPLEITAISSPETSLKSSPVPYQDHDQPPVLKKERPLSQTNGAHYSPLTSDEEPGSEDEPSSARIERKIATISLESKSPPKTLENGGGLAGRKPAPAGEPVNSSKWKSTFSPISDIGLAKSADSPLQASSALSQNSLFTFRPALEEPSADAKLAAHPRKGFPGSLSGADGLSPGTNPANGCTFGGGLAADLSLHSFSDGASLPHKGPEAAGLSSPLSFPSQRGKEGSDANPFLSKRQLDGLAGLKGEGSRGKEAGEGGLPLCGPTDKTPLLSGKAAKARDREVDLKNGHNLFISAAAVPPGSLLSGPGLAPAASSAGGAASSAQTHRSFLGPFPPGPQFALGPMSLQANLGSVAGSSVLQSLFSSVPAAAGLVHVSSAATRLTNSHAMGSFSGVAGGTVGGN
Sequence of CRBN with DOT1L (Q8TEK3 whole entry): as above
Sequence of CRBN with DOT1L (Q96SW2 whole entry): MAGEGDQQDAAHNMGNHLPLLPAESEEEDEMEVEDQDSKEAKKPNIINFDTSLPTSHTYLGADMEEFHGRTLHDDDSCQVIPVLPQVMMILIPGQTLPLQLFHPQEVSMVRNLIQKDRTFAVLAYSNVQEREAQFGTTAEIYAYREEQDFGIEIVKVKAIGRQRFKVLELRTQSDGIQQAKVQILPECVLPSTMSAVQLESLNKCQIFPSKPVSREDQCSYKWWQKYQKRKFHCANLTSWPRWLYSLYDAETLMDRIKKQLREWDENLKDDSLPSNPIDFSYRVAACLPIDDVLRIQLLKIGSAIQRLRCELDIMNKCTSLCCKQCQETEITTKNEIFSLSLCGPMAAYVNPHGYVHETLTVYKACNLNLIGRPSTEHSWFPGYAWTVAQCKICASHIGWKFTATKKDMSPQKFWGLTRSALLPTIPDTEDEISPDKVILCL
T3 sequence (Q8TEK3 whole entry): as the sequence (Q8TEK3 whole entry) above
T3 sequence (Q96SW2 whole entry): as the sequence (Q96SW2 whole entry) above
T3 sequence (Q16531 whole entry partner): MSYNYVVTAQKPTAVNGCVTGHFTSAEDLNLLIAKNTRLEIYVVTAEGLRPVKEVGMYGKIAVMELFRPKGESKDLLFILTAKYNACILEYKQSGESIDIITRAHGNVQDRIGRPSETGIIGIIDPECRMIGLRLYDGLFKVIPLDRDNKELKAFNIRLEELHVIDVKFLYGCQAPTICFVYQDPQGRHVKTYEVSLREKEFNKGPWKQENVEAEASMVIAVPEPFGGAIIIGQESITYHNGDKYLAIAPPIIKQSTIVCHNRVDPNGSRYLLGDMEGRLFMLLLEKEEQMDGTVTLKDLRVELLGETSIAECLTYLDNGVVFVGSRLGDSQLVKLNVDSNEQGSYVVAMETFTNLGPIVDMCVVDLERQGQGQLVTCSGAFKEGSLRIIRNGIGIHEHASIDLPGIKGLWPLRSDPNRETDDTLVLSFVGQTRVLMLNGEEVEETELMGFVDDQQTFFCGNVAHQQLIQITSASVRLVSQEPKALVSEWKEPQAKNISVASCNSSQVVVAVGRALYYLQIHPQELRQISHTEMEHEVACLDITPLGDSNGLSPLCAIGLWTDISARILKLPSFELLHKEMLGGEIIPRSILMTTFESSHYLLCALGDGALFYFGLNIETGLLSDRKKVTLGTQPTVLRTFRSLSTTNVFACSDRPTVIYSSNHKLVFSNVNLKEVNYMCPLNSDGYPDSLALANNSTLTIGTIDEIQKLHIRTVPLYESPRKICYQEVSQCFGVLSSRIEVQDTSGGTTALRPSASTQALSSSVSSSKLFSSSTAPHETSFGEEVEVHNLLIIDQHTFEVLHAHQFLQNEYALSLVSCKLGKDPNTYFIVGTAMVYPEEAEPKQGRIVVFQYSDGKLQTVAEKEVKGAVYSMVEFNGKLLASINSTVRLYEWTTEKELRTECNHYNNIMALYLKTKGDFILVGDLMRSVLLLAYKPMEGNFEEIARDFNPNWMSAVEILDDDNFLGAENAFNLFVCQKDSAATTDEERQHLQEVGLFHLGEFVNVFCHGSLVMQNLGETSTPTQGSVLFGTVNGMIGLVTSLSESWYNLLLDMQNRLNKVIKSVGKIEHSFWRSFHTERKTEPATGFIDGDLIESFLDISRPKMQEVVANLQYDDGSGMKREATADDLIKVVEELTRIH
T1 sequence (Q6XZL8 1-1540): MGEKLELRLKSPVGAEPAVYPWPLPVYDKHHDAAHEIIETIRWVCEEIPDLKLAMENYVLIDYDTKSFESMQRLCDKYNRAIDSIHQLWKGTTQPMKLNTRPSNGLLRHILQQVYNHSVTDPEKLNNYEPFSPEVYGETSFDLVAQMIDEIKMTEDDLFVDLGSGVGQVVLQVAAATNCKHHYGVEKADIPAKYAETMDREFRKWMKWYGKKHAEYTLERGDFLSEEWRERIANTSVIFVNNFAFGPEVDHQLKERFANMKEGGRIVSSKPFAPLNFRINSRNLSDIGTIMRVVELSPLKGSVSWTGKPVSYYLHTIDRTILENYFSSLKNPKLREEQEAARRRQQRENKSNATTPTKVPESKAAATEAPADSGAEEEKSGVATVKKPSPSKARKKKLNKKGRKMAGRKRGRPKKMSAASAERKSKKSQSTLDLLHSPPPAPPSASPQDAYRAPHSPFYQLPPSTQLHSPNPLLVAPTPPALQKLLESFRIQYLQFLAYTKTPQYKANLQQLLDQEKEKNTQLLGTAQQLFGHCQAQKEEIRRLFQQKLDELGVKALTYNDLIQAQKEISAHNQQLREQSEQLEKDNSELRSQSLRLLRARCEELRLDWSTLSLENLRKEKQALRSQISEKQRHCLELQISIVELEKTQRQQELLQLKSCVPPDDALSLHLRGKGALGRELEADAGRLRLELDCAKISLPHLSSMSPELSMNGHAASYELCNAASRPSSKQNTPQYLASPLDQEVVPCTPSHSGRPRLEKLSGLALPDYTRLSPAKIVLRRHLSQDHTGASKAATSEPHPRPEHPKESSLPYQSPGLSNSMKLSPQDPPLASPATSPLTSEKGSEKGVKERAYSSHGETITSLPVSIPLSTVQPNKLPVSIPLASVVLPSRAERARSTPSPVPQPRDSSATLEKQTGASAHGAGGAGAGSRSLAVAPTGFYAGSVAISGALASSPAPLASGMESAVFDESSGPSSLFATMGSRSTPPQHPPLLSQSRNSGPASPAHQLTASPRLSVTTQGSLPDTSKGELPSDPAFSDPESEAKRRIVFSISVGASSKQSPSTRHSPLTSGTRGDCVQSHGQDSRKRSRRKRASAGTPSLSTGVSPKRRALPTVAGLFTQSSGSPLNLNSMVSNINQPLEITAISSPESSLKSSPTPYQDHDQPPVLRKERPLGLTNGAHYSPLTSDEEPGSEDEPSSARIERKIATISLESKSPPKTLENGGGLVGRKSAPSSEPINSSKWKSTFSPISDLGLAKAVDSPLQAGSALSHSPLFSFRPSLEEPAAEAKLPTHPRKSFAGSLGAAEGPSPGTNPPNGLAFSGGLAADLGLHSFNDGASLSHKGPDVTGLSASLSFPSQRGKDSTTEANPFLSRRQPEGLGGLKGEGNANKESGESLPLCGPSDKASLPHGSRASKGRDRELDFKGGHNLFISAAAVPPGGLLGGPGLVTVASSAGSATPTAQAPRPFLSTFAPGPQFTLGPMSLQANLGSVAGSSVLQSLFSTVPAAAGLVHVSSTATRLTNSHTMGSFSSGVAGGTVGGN

SMILES: CC(C)N(C[C@H]1O[C@@H](n2cnc3c(NCCCCNC(=O)C=COCCOCCOCCNc4cccc5c4C(=O)N(C4CCC(=O)NC4=O)C5=O)ncnc32)[C@H](O)[C@@H]1O)C1CC(CCc2nc3cc(C(C)(C)C)ccc3[nH]2)C1 (stereo partly drawn) [DOT1L-1, N-(4-((9-((2R,3R,4S,5R)-5-(((3-(2-(5-(tert-butyl)-1H-benzo[d]imidazol-2-yl)ethyl)cyclobutyl)(isopropyl)amino)methyl)-3,4-dihydroxytetrahydrofuran-2-yl)-9H-purin-6-yl)amino)butyl)-3-(2-(2-(2-((2-(2,6-dioxopiperidin-3-yl)-1,3-dioxoisoindolin-4-yl)amino)ethoxy)ethoxy)ethoxy)propenamide]
degradation in blots (DOT1L, H3K79me2) (DOT1L [1]): degrades Mouse MLL-AF9 PA (Mixed-lineage leukemia (MLL)-AF9 leukemia) cells | effect on Molm13 PA cells in blots (DOT1L, H3K79me2) (DOT1L [2]): inhibits acute myeloid leukemia cells (Molm13 PA)

DOT1L degradation (DOT1L [4]; [5]): solid degradation | time at which DOT1L degradation happened (DOT1L [4]; [6]): 16 h | time of maximum DOT1L degradation (DOT1L [4]; [6]): 24 h | DOT1L degradation (DOT1L [4]; [7]): shows degradation | activity in the cell (DOT1L [4]; general remark in legend of FIG. 20, cell not named there): works very well in the cell | dimerization of CRBN with DOT1L (signal) (CRBN with DOT1L): strongest signal
SMILES: CC(C)N(C[C@H]1O[C@@H](n2cnc3c(NCCCCNC(=O)CCCCCCCCCCCNc4cccc5c4C(=O)N(C4CCC(=O)NC4=O)C5=O)ncnc32)C(O)C1O)C1CC(CCc2nc3cc(C(C)(C)C)ccc3[nH]2)C1 (stereo partly drawn) [JQ-DD6]
degradation of DOT1L (reporter signal) [3]: strongest signal for degradation of DOT1L

DOT1L degradation (DOT1L [4]; [5]): show degradation | DOT1L degradation (DOT1L [4]; [7]): shows degradation
SMILES: CC(C)N(C[C@H]1O[C@@H](n2cnc3c(NCCCCNC(=O)CCCCCCCCCNc4cccc5c4C(=O)N(C4CCC(=O)NC4=O)C5=O)ncnc32)C(O)C1O)C1CC(CCc2nc3cc(C(C)(C)C)ccc3[nH]2)C1 (stereo partly drawn) [JQ-DD7]

DOT1L degradation (DOT1L [4]; [5]): show degradation | DOT1L degradation (DOT1L [4]; [7]): shows degradation
SMILES: CC(C)N(CCCNC(=O)Nc1ccc(C(C)(C)C)cc1)C[C@H]1O[C@@H](n2cnc3c(NCCCCNC(=O)CCCCCCCCCCCNc4cccc5c4C(=O)N(C4CCC(=O)NC4=O)C5=O)ncnc32)C(O)C1O (stereo partly drawn) [JQ-DD8]
toxicity in EOL1 (EOL1 cells; FIG. 21, EOL1 cells): potential toxicity | toxicity in EOL1 (EOL1 cells; FIG. 24, EOL1 cells): potential toxicity
